Data on 10 molecules can be found in patent US20150105252A1, “SUBSTITUTED PYRAZOLES AS HERBICIDES” (E I DU PONT DE NEMOURS AND COMPANY, priority 2013, published 2015).

For one experiment, the system named is chamomile. Put plainly: Test D postemergence. Format: in vivo, Matricaria inodora. Conditions: scale 0 to 100. The source says:
Seeds of plant species selected from bluegrass (annual bluegrass, Poa annua), blackgrass (Alopecurus myosuroides), canarygrass (littleseed canarygrass, Phalaris minor), chickweed (common chickweed, Stellaria media), galium (catchweed bedstraw, Galium aparine), bromegrass, downy (downy bromegrass, Bromus tectorum), field poppy (Papaver rhoeas), field violet (Viola arvensis), foxtail, green (green foxtail, Setaria viridis), deadnettle (henbit deadnettle, Lamium amplexicaule), ryegrass, Italian (Italian ryegrass, Lolium multiflorum), kochia (Kochia scoparia), lambsquarters (Chenopodium album), oilseed rape (Brassica napus), pigweed (redroot pigweed, Amaranthus retroflexus), chamomile (scentless chamomile, Matricaria inodora), speedwell (bird's-eye speedwell, Veronica persica), barley, spring (spring barley, Hordeum vulgare), wheat, spring (spring wheat, Triticum aestivum), buckwheat, wild (wild buckwheat, Polygonum convolvulus), mustard, wild (wild mustard, Sinapis arvensis), oat, wild (wild oat, Avena fatua), radish, wild (wild radish, Raphanus raphanistrum), windgrass (Apera spica-venti), Russian thistle (Salsola kali), barley, winter (winter barley, Hordeum vulgare), and wheat, winter (winter wheat, Triticum aestivum) were planted into a silt loam soil and treated preemergence with test chemicals formulated in a non-phytotoxic solvent mixture which included a surfactant.
At the same time, these species were planted in pots containing Redi-Earth® planting medium (Scotts Company, 14111 Scottslawn Road, Marysville, Ohio 43041) comprising spaghnum peat moss, vermiculite, wetting agent and starter nutrients and treated with postemergence applications of the test chemicals formulated in the same manner. Plants ranged in height from 2 to 18 cm (1- to 4-leaf stage). Treated plants and controls were maintained in a controlled growth environment for 14 to 21 days after which time all species were compared to controls and visually evaluated. Plant response ratings, summarized in Table D, are based on a scale of 0 to 100 where 0 is no effect and 100 is complete control. A dash (-) response means no test result.

For another experiment, the system named is rice. Description: Test C flooded paddy test. Format: in vivo, Oryza sativa. The conditions noted are these: Flood. The gist of the method:
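Test compounds are applied straight into paddy water held 3 cm above the soil surface, with that flood maintained for the whole test. After 13 to 15 days in the greenhouse, each species is scored visually relative to controls.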

For the next experiment, the system named is Italian ryegrass. Put plainly: Test F preemergence. The format is in vivo, Lolium multiflorum. The source says: (§1) Seeds of plant species selected from corn (Zea mays), soybean (Glycine max), velvetleaf (Abutilon theophrasti), lambsquarters (Chenopodium album), wild poinsettia (Euphorbia heterophylla), pigweed, palmer (palmer pigweed, Amaranthus palmeri), common waterhemp (Amaranthus rudis), surinam grass (Brachiaria decumbens), large crabgrass (Digitaria sanguinalis), crabgrass, Brazil (Brazilian crabgrass, Digitaria horizontalis), fall panicum (Panicum dichotomiflorum), giant foxtail (Setaria faberii), green foxtail (Setaria viridis), goosegrass (Eleusine indica), johnsongrass (Sorghum halepense), common ragweed (Ambrosia elation), barnyardgrass (Echinochloa crus-galli), southern sandbur (Cenchrus echinatus), arrowleaf sida (Sida rhombifolia), Italian ryegrass (Lolium multiflorum), dayflower, VA (Virginia (VA) dayflower, Commelina virginica), field bindweed (Convolvulus arvensis), cocklebur (common cocklebur, Xanthium strumarium), morningglory (Ipomoea coccinea), nightshade (eastern black nightshade, Solanum ptycanthum), kochia (Kochia scoparia), yellow nutsedge (Cyperus esculentus), and hairy beggarticks (Bidens pilosa), were planted into a silt loam soil and treated preemergence with test chemicals formulated in a non-phytotoxic solvent mixture which included a surfactant.
(§2) At the same time, plants from these crop and weed species and also horseweed (Canada horseweed, Conyza canadensis), smartweed (ladysthumb smartweed, Polygonum persicaria), waterhemp_RES1, (ALS & Triazine resistant common waterhemp, Amaranthus rudis), and waterhemp_RES2, (ALS & HPPD resistant common waterhemp, Amaranthus rudis) were treated with postemergence applications of test chemicals formulated in the same manner. Plants ranged in height from 2 to 18 cm for postemergence treatments (1- to 4-leaf stage). Treated plants and controls were maintained in a greenhouse for 14 to 21 days, after which time all species were compared to controls and visually evaluated. Plant response ratings, summarized in Table F, are based on a scale of 0 to 100 where 0 is no effect and 100 is complete control. A dash (-) response means no test result.

For another experiment, the system named is large crabgrass. Description: Test F preemergence. Format: in vivo, Digitaria sanguinalis.
Source text: as §1, §2

Another experiment concerns arrowleaf sida. Put plainly: Test F preemergence. Format: in vivo, Sida rhombifolia.
Source text: as §1, §2

Another experiment has as its system goosegrass. Put plainly: Test F preemergence. The format is in vivo, Eleusine indica.
Source text: as §1, §2

Where [1] appears, read: 31 g ai/ha, scale 0 to 100 (0 no effect, 100 complete control).
The mark [2] stands for this setting: 62 g ai/ha, scale 0 to 100 (0 no effect, 100 complete control).
Where [3] appears, read: Preemergence, 31 g ai/ha, scale 0 to 100.
The mark [4] stands for this setting: Preemergence, 62 g ai/ha, scale 0 to 100.
Where [5] appears, read: Preemergence, 125 g ai/ha, scale 0 to 100.
Where [6] appears, read: preemergence, 8 g ai/ha, scale 0 to 100, 100 is complete control.
Where [7] appears, read: 125 g ai/ha, scale 0 to 100 (0 no effect, 100 complete control).
Where [8] appears, read: preemergence, 16 g ai/ha, scale 0 to 100, 100 is complete control.
The mark [9] stands for this setting: preemergence, scale 0 to 100, 100 is complete control.
Where [10] appears, read: Preemergence, 16 g ai/ha, scale 0 to 100.
The mark [11] stands for this setting: Preemergence, 250 g ai/ha, scale 0 to 100.

On to `CCc1cc(C(=O)NC(C)C)nn1Cc1ccnc(C(F)(F)F)c1` [Compound 103], for which the “Chamomile plant response rating” value with chamomile (Postemergence, 31 g ai/ha) came out at 10; in the experiment with chamomile (Postemergence, 125 g ai/ha), 30; with chamomile (Postemergence, 250 g ai/ha) it was 60; with chamomile (postemergence, 62 g ai/ha), 30.
For the molecule `CCCc1cc(C(=O)NCC(F)(F)F)nn1Cc1cc(C(F)(F)F)nn1C` [Compound 138], the “Chamomile plant response rating” value with chamomile (Postemergence, 31 g ai/ha) was found to be 50; with chamomile (Postemergence, 125 g ai/ha) it was 60; in the experiment with chamomile (Postemergence, 250 g ai/ha), 65; in the experiment on chamomile (postemergence, 62 g ai/ha), 50.
Take `CCCNC(=O)c1cc(CCCl)n(Cc2ccnc(C(F)(F)F)c2)n1` [Compound 145]: the “Plant response rating, Rice” value with rice (setting [1]) came to 0; in the experiment with rice (setting [2]), 20; in the experiment with rice (125 g ai/ha, scale 0 to 100), 25; with rice (250 g ai/ha, scale 0 to 100) it was 40.
On to `CCNC(=O)c1cc(CCCl)n(Cc2ccnc(C(F)(F)F)c2)n1` [Compound 179], for which the “Plant response rating, Italian Ryegrass” value is 10 with Italian ryegrass (setting [3]), 40 with Italian ryegrass (setting [4]), 65 in the experiment with Italian ryegrass (setting [5]) and 0 with Italian ryegrass (setting [6]). Further, the “Plant response rating, Large Crabgrass” value in the experiment on large crabgrass (setting [3]) is 40; in the experiment on large crabgrass (setting [4]), 95; in the experiment with large crabgrass (setting [5]), 90; in the experiment on large crabgrass (setting [6]) it was 0. Moreover, the “Plant response rating, Arrowleaf Sida” value with arrowleaf sida (setting [3]) came out at 0; with arrowleaf sida (setting [4]), 0; with arrowleaf sida (setting [5]), 35; in the experiment on arrowleaf sida (setting [6]), 0. Moreover, the “Plant response rating, Goosegrass” value in the experiment on goosegrass (setting [3]) turned out to be 30; with goosegrass (setting [4]) it was 30; in the experiment on goosegrass (setting [5]), 30; with goosegrass (setting [6]) it was 0.
For the molecule `CCOc1cc(C(=O)NC2CC2)nn1Cc1ccnc(C(F)(F)F)c1` [Compound 189], the “Chamomile plant response rating” value with chamomile (Postemergence, 31 g ai/ha) is listed as 55; in the experiment on chamomile (Postemergence, 125 g ai/ha), 60; in the experiment on chamomile (Postemergence, 250 g ai/ha), 65; in the experiment with chamomile (postemergence, 62 g ai/ha), 55.
On to `CCONC(=O)c1cc(OCC)n(Cc2ccnc(C(F)(F)F)c2)n1` [Compound 195], for which the “Plant response rating, Rice” value is 0 with rice (setting [1]); 0 with rice (setting [2]); 0 with rice (setting [7]); 20 in the experiment with rice (250 g ai/ha, scale 0 to 100).
As to `CCNC(=O)c1cc(CC)n(Cc2ccnc(C(F)(F)F)c2)n1` [Compound 196], the “Plant response rating, Italian Ryegrass” value with Italian ryegrass (setting [4]) worked out at 20; in the experiment on Italian ryegrass (setting [5]) it was 50; with Italian ryegrass (setting [6]), 0; in the experiment on Italian ryegrass (setting [8]), 0. Besides, the “Plant response rating, Large Crabgrass” value in the experiment on large crabgrass (setting [4]) stood at 100; with large crabgrass (setting [5]), 100; in the experiment with large crabgrass (setting [6]), 35; with large crabgrass (setting [8]), 35; in the experiment on large crabgrass (setting [9]), 95. Besides, the “Plant response rating, Arrowleaf Sida” value is 0 in the experiment with arrowleaf sida (setting [10]); 5 in the experiment with arrowleaf sida (setting [4]); 70 in the experiment with arrowleaf sida (setting [5]); 0 with arrowleaf sida (setting [6]); 0 in the experiment on arrowleaf sida (setting [8]). Also, the “Plant response rating, Goosegrass” value is listed as 70 in the experiment on goosegrass (setting [4]), 95 with goosegrass (setting [5]), 0 with goosegrass (setting [6]) and 0 in the experiment with goosegrass (setting [8]).
With `Cc1cc(C(=O)NC(C)C)nn1Cc1ccnc(C(F)(F)F)c1` [Compound 197], the “Plant response rating, Italian Ryegrass” value was 30 in the experiment with Italian ryegrass (setting [4]), 30 in the experiment with Italian ryegrass (setting [5]), 0 with Italian ryegrass (setting [6]) and 0 with Italian ryegrass (setting [8]). The “Plant response rating, Large Crabgrass” value with large crabgrass (setting [4]) is reported as 35; in the experiment on large crabgrass (setting [5]) it was 100; with large crabgrass (setting [6]), 0; in the experiment with large crabgrass (setting [8]), 0; in the experiment on large crabgrass (setting [9]), 35. For the same molecule, the “Plant response rating, Arrowleaf Sida” value in the experiment with arrowleaf sida (setting [10]) turned out to be 5; in the experiment with arrowleaf sida (setting [4]), 5; with arrowleaf sida (setting [5]), 10; in the experiment with arrowleaf sida (setting [6]), 0; with arrowleaf sida (setting [8]), 5. Moreover, the “Plant response rating, Goosegrass” value in the experiment with goosegrass (setting [4]) came to 5; in the experiment on goosegrass (setting [5]), 70; with goosegrass (setting [6]) it was 0; in the experiment with goosegrass (setting [8]), 0.
Regarding `CCc1cc(C(=O)NC2CC2)nn1Cc1ccnc(OCC(F)(F)F)c1` [Compound 200], the “Plant response rating, Italian Ryegrass” value was 75 with Italian ryegrass (setting [11]), 0 in the experiment on Italian ryegrass (setting [4]), 60 in the experiment with Italian ryegrass (setting [5]) and 0 with Italian ryegrass (setting [8]). Also, the “Plant response rating, Rice” value in the experiment with rice (setting [1]) amounted to 0; in the experiment with rice (setting [2]) it was 0; in the experiment on rice (setting [7]) it was 15; in the experiment on rice (250 g ai/ha, scale 0 to 100), 20. The “Plant response rating, Large Crabgrass” value with large crabgrass (setting [11]) came to 100; in the experiment on large crabgrass (setting [4]), 20; in the experiment with large crabgrass (setting [5]), 100; in the experiment on large crabgrass (setting [8]) it was 0; with large crabgrass (setting [9]) it was 35. Further, the “Plant response rating, Arrowleaf Sida” value in the experiment on arrowleaf sida (setting [11]) was determined as 80; with arrowleaf sida (setting [10]) it was 0; in the experiment with arrowleaf sida (setting [4]), 5; in the experiment on arrowleaf sida (setting [5]), 35; in the experiment on arrowleaf sida (setting [8]), 0. Also, the “Plant response rating, Goosegrass” value in the experiment with goosegrass (setting [11]) was determined as 90; in the experiment on goosegrass (setting [4]), 35; in the experiment with goosegrass (setting [5]), 65; with goosegrass (setting [8]), 0.
For the molecule `CCc1cc(C(=O)NC2CC2)nn1Cc1cc(C(F)(F)C(F)(F)F)nn1C` [Compound 226], the “Plant response rating, Rice” value in the experiment with rice (setting [1]), in the experiment with rice (setting [2]) and with rice (setting [7]) was 0 throughout.
